Test results: patent US20150216848A1, “COMPOUNDS THAT INHIBIT TAU PHOSPHORYLATION” (THE TRANSLATIONAL GENOMICS RESEARCH INSTITUTE, priority 2010, published 2015)
Entries after “also recorded” stand apart in the source; their conditions may differ. Where two headings read alike, the source gives them in different places.

Assays:
H4 neuroglioma cell line = assay: Viability (toxicity) assay, alamar Blue; assay type: cell-based; settings: for effect on the viability of the cells at the lower doses: 9-ethylharmine 1 μM, harmine 0.8 μM; for IC50: read-out: IC50 for viability (toxicity)
recombinant human DYRK1A = target: T1, recombinant human DYRK1A (Homo sapiens, UniProt Q13627); assay type: biochemical; settings: for IC50: recombinant DYRK1A and 4R2N tau, 1 mM ATP, read-out: IC50, inhibition of DYRK1A dependent tau phosphorylation at serine 396
T1 construct: purchased Invitrogen (DYRK1A); SignalChem (tau)

[1] = tested on: total tau and phosphorylated tau (12E8 pS262/pS356, pT231, pS396) in 4R0N tau overexpressing H4 neuroglioma cells; assay: Cell culture tau assay (Western blot of total and phosphorylated tau); assay type: cell-based; settings: for effects in the cell-based tau assay: FIG. 3; for phosphorylated forms of tau (12E8 pS262/pS356, pT231, pS396): H4-tau cells, 80 nM, 800 nM and 8 μM, 96 hours; for total tau and phosphorylated forms of tau: doses up to 500 μM
[2] = tested on: spatial working memory and short-term memory retention; assay: Delayed-match-to-sample asymmetrical 3-choice task; assay type: in vivo, rat
Text: (§1) Twenty-six 17 month-old Fischer-344 male rats raised at the National Institute on Aging colony at Harlan Laboratories (Indianapolis, Ind.) were used in the study. After arrival, rats were pair-housed, had food and water ad-lib, and were maintained on a 12-h light/dark cycle. Procedures were approved by the Institutional Animal Care and Use Committee, and adhered to National Institutes of Health standards.
(§2) Rats were randomly divided into three treatment groups (n at start of study, m included in final behavioral analyses): vehicle (10, 10), low-Harmine 1 mg/kg (10, 10), or high-Harmine 5 mg/kg (10, 6). […]
Spatial working memory and short-term memory retention were evaluated using a win-stay water-escape DMS asymmetrical place-learning task. […] Entry into any non-platformed arm was counted as an error. An arm entry was counted when the tip of a rat's snout reached a mark on the outside of the arm (not visible from the inside of the maze; 11 cm into the arm).
In an initial analysis, Harmine-low and Harmine-high groups were compared. […] DMS data were analyzed with an omnibus ANOVA with treatment as the between groups variable and total number of errors for each trial as repeated measures. MM data were analyzed with an omnibus ANOVA with treatment as the between groups variable and swim distance (cm) to the platform as repeated measures. […]

spatial reference memory = assay: Morris water maze; assay type: in vivo, rat; settings: rats
Text: as §1, §2
Spatial reference memory was evaluated using the Morris Maze. […] A video camera and tracking system tracked and measured each rat's swim pathway.
(§3) In an initial analysis, Harmine-low and Harmine-high groups were compared. […] DMS data were analyzed with an omnibus ANOVA with treatment as the between groups variable and total number of errors for each trial as repeated measures. MM data were analyzed with an omnibus ANOVA with treatment as the between groups variable and swim distance (cm) to the platform as repeated measures. […] Visible platform data were further analyzed using a regression analysis with testing squad (1-3) as the predictor and mean escape latency across trials 1-6 as the criterion. […]

[3] = tested on: motor and visual competence; assay: Visible platform task and observed motor side effects; assay type: in vivo, rat; settings: rats
Text: as §1
Rats were randomly divided into three treatment groups (n at start of study, m included in final behavioral analyses): vehicle (10, 10), low-Harmine 1 mg/kg (10, 10), or high-Harmine 5 mg/kg (10, 6). Nine days after arrival, animals started receiving daily subcutaneous injections at a volume of 1 ml/kg. […] Behavioral testing began after the second injection day, testing commenced approximately 30-45 minutes after injections and lasted for 6-8 hours. Animals were assigned semi-randomly to one of three testing squads of 10 animals each balanced with respect to treatment group.
Four days after MM testing, motor and visual competence were evaluated using the visible platform task. This was an adaptation of the cue-navigation version of the spatial MM task previously used to dissociate visual and motor acuity from place memory. This task was ideal due to its similarity to other spatial water-maze tasks with respect to motor and visual requirements, differing only in that animals are not required to associate the location of the platform with distal cues. […]
as §3

For `CCn1c2cc(OC)ccc2c2ccnc(C)c21` [9-ethyl harmine], the “effect on the viability of the cells at the lower doses” value (H4 neuroglioma cell line) was “no detectable effect”, the IC50 (H4 neuroglioma cell line) was 9 µM and the IC50 (recombinant human DYRK1A) was 0.4 µM. For the same compound, the “reducing total tau and phosphorylated tau levels” value ([1]; 1 μM) was “significant reductions” and the “reducing total tau and phosphorylated tau levels” value ([1]; dose of 10 μM) was “significant effects”.
For `COc1ccc2c3c([nH]c2c1)C(C)=NCC3` [harmaline], the IC50 (H4 neuroglioma cell line) was 56 µM, the “affinity relative to harmine in the in vitro phosphorylation assay” value (“affinity relative to harmine” below) (recombinant human DYRK1A) was “more than an order of magnitude lower in affinity than harmine” and the “effects in the cell-based tau assay” value [1] was “relatively muted effects”.
`Cc1nccc2c1[nH]c1ccccc12` [harmane] was tested, and the IC50 (H4 neuroglioma cell line) was 32 µM, the “affinity relative to harmine” value (recombinant human DYRK1A) was “more than an order of magnitude lower in affinity than harmine” and the “effects in the cell-based tau assay” value [1] was “relatively muted effects”.
`COc1ccc2c(c1)[nH]c1c(C)nccc12` [harmine] was tested, and the “total errors on the DMS task, testing block 4 (Days 8-9), trials 2-6” value ([2]; 17 month-old Fischer-344 male rats, 1 and 5 mg/kg daily subcutaneous, groups combined, vs vehicle, P=0.03) was “enhanced working and short-term memory; also recorded: fewer total errors”, the “DMS task, testing blocks 1, 2 or 3” value ([2]; rats, 1 and 5 mg/kg s.c. combined) was “no main effects” and the “Morris maze distance swam to the platform, days 1-3” value (spatial reference memory; 1 and 5 mg/kg s.c.) was “no Harmine treatment main effects”. For the same compound, the “effect on spatial reference memory” value (spatial reference memory; doses tested 1 and 5 mg/kg s.c.) was “no significant effect”, the “effect on the viability of the cells at the lower doses” value (H4 neuroglioma cell line) was “no detectable effect” and the IC50 (H4 neuroglioma cell line) was 12 µM. For the same compound, the “reducing total tau and phosphorylated tau levels” value ([1]; 0.8 μM) was “significant reductions”, the “levels of total tau protein” value ([1]; 0.8 μM and 8 μM) was “reduce the levels of total tau protein” and the “phosphorylated forms of tau (12E8 pS262/pS356, pT231, pS396)” value [1] was “dose-dependent reduction”. For the same compound, the “phosphorylated forms of tau (12E8 pS262/pS356, pT231, pS396)” value ([1]; listed as Harmine) was “reduced the expression of each phospho-tau species tested”, the “reducing total tau and phosphorylated tau levels” value ([1]; dose of 10 μM) was “significant effects” and the “decrease of mean escape latency with each squad tested (visible platform task)” value ([3]; Harmine-high 5 mg/kg s.c.) was “roughly 11.6 seconds”. The “duration of motor impairments after injections” value ([3]; Harmine-high 5 mg/kg s.c.) was 1 to 2 h and the motoric effects ([3]; harmine treatment) was “obvious motoric effects”.
For `O=C(NCCN1CCOCC1)c1ccc(Cl)cc1` [moclobemide, reference compound], the “total tau and phosphorylated forms of tau” value [1] was “did not affect tau phosphorylation” and the “total tau and phosphorylated forms of tau” value ([1]; listed as Moclobemide) was “did not reduce levels”.
`c1ccc2c(c1)[nH]c1cnccc12` [norharmane] was tested, and the IC50 (H4 neuroglioma cell line) was 95 µM, the “affinity relative to harmine” value (recombinant human DYRK1A) was “more than an order of magnitude lower in affinity than harmine” and the “effects in the cell-based tau assay” value [1] was “relatively muted effects”.
For harmol, the IC50 (H4 neuroglioma cell line; H4 neuroglioma cell line, alamar Blue, fresh drug every 24 hours for 4 days) was 18 µM, the IC50 (recombinant human DYRK1A) was 0.09 µM and the “reducing total tau and phosphorylated tau levels” value ([1]; dose of 10 μM) was “significant effects”.
